Experimental data published in ChEMBL document CHEMBL1127777, “Indolocarbazole nitrogens linked by three-atom bridges: a potent new class of PKC inhibitors” (Bioorg Med Chem Lett, 1994).

Target: Protein kinase C (PKC)
Experiment: In vitro inhibition of protein kinase C from rat brain.

SMILES | IC50 [nM]
O=C1NC(=O)c2c1c1c3ccccc3n3c1c1c2c2ccccc2n1CN(C(CO)CO)C3 | 10
O=C1NC(=O)c2c1c1c3ccccc3n3c1c1c2c2ccccc2n1COC3 | 11
O=C1NC(=O)c2c1c1c3ccccc3n3c1c1c2c2ccccc2n1C1COCC3S1(=O)=O | 20
CCOC(=O)C1n2c3ccccc3c3c4c(c5c6ccccc6n(c5c32)CS1(=O)=O)C(=O)NC4=O (stereo not drawn) | 20
O=C1NC(=O)c2c1c1c3ccccc3n3c1c1c2c2ccccc2n1CSC3 | 14
NC1=NC(=O)c2c1c1c3ccccc3n3c1c1c2c2ccccc2n1COC3 | 24
O=C1NC(=O)c2c1c1c3ccccc3n3c1c1c2c2ccccc2n1C[S+]([O-])C3 | 19
O=C1NC(=O)c2c1c1c3ccccc3n3c1c1c2c2ccccc2n1CN(CCO)C3 | 17
O=C1NCc2c1c1c3ccccc3n3c1c1c2c2ccccc2n1CSC3 | 7
O=C1NC(=O)c2c1c1c3ccccc3n3c1c1c2c2ccccc2n1CNC3 | 145
O=C1NCc2c1c1c3ccccc3n3c1c1c2c2ccccc2n1CN(CCO)C3 | 15
NC1=NC(=O)c2c1c1c3ccccc3n3c1c1c2c2ccccc2n1CSC3 | 24
O=C1NC(=O)c2c1c1c3ccccc3n3c1c1c2c2ccccc2n1CS(=O)(=O)C3 | 2
O=C1NCc2c1c1c3ccccc3n3c1c1c2c2ccccc2n1CS(=O)(=O)C3 | 5
CN1Cn2c3ccccc3c3c4c(c5c6ccccc6n(c5c32)C1)C(=O)NC4=O | 86
CC1n2c3ccccc3c3c4c(c5c6ccccc6n(c5c32)C(C)S1(=O)=O)C(=O)NC4=O (stereo in doubt; 16 (dl)) | 120
CC1n2c3ccccc3c3c4c(c5c6ccccc6n(c5c32)C(C)S1(=O)=O)C(=O)NC4=O (stereo in doubt) | 2.4
O=C1NC(=O)c2c1c1c3ccccc3n3c1c1c2c2ccccc2n1CN(O)C3 | 90
